The values that follow come from patent US11085022B2 (priority 2014, dated 2021).

One data set has as its system Streptococcus pneumoniae. Nature of the data set: Survival time of streptococcal pneumonia model mice. It counts as in vivo. The note with it: 10 mg/kg, 7 administrations. As for the experimental part:
48 inflammation model mice were randomized to 4 groups, each group having 12 animals. […] All the animals were administered at days 1, 2, 3, 4, 6, 8, and 10 after surgery, and a total of 7 administrations were presented. Groups given with the neutrophil granulocytes of the same density and the physiological saline of the same volume were also set and used as a blank control.

Data set [1] has as its system adjuvant arthritis model mice. Description: Osteoarthritis index score in adjuvant arthritis model mice. In kind it is in vivo. The note with it: 15 mg/kg, 7 administrations; compared with the physiological saline group. As for the experimental part: (§1) Adjuvant arthritis mouse model: The BCG vaccine was inactivated for 1 hr in a water bath at 80° C., and ground and mixed fully with autoclaved paraffin, to prepare a 10 mg/ml complete Freund adjuvant (CFA). 0.1 ml CFA was intracutaneously injected into the metatarsal in the right rear foot of the mice for inflammation induction.

A further data set concerns ear swelling model mice. Description: Degree of ear swelling in ear swelling model mice. The following applies: 15 mg/kg; compared with the physiological saline group; difference in the weight of the ears. In kind it is in vivo. As for the experimental part:
48 inflammation model mice were randomized to 4 groups, each group having 12 animals. […] A control group having 12 mice with primary tumor was also set. […] All the animals were administered at days 1, 2, 3, 4, 6, 8, and 10 after surgery, and a total of 7 administrations were presented. Groups given with the neutrophil granulocytes of the same density and the physiological saline of the same volume were also set and used as a blank control. The mice were administrated for 3 consecutive days, and then sacrificed by cervical vertebra dislocation after the 3 administrations. Round specimens were punched from the same portion of the left and the right ears by a 7 mm punch and weighed on an analytical balance. The degree of ear swelling was indicated by the difference in the weight of the ears, and the anti-inflammatory effects of the drugs were compared, as shown in FIG. 15.

Data set [2] in a line: In-vivo distribution and ear targeting in ear swelling model mice. The following applies: male, mouse, 15 mg/kg. As for the experimental part:
Ear swelling mouse model: Round pieces of filter paper that were 7 mm in diameter and soaked with dimethyl benzene were tightly attached for 15 s to the right ears of clean-grade male mice weighed 18-22 g.
72 mice with inflammation were randomized to 2 groups, each group having 36 animals. Before administration, the mice were fasted, but allowed to free access to water overnight. […] 0.167 h, 0.5 h, 1 h, 2 h, 4 h, 8 h, 12 h, 24 h, 48 h, 72 h, 96 h, and 120 h after administration, the eyeballs were removed to collect the blood, and then the mice were sacrificed. The heart, liver, spleen, kidney, and ear tissues were removed, washed with physiological saline, and weighed after the residual physiological saline was aspirated off with filter paper.
The tissue samples (heart, liver, spleen, kidney, and ear) from the mice with inflammation were weighed, placed in a blood collection tube, added with 2 mL physiological saline, and dispersed by a tissue homogenizer at a high speed, to give a tissue homogenate. 200 μL acetonitrile was added to 200 μL of each tissue homogenate, vortexed for 5 min, and centrifuged for 10 min at 10000×g.
The ear targeting efficiency (Te) refers to the ratio of AUCs of the same preparation in the ear and in other tissues. […]

The nature of data set [3]: In-vivo distribution and paw targeting in adjuvant arthritis model mice. The following applies: mouse; for concentration at 0.5 h / concentration at 1 h / concentration at 2 h / concentration at 4 h / concentration at 8 h / concentration at 12 h: 15 mg/kg, iv ibuprofen 15 mg/kg. As for the experimental part: as §1
72 mice with inflammation were randomized to 2 groups, each group having 36 animals. Before administration, the mice were fasted, but allowed to free access to water overnight. […] 0.167 h, 0.5 h, 1 h, 2 h, 4 h, 8 h, 12 h, 24 h, 48 h, 72 h, 96 h, and 120 h after administration, the eyeballs were removed to collect the blood, and then the mice were sacrificed. The heart, liver, spleen, kidney, and the metatarsal tissue in the right rear foot were removed, washed with physiological saline, and weighed after the residual physiological saline was aspirated off with filter paper.
The tissue samples (heart, liver, spleen, kidney, and metatarsal in the right rear foot) from the mice with inflammation were weighed, placed in a blood collection tube, added with 2 mL physiological saline, and dispersed by a tissue homogenizer at a high speed, to give a tissue homogenate. 200 μL acetonitrile was added to 200 μL of each tissue homogenate, vortexed for 5 min, and centrifuged for 10 min at 10000×g.
The paw targeting efficiency (Te) refers to the ratio of AUCs of the same preparation in the inflammatory site, that is, the paw, and in other tissues. […] The larger the Te is, the higher the selectivity of the preparation for the non-specific inflammatory site (the metatarsal in the right rear foot) will be, as compared with the selectivity for other comparative tissues.

`C[C@H]1COc2c(N3CCN(C)CC3)c(F)cc3c(=O)c(C(=O)O)cn1c23` [levofloxacin]: the survival time entry in the data set with Streptococcus pneumoniae was “about 21 days”.
`CC(C)Cc1ccc(C(C)C(=O)O)cc1` (centres unmarked) [ibuprofen]: the “time at which the peak score occurs” value in data set [1] was “prolonged somewhat”. Moreover, the “degree of ear swelling” value with ear swelling model mice is “no obvious improvement”. The compound further came in with a concentration at 1 h in data set [2] of 3990 ng/g. Besides, the “organ(s) with the largest distribution” value in data set [3] is “liver”. Moreover, in data set [3] (Distribution in Heart), the concentration at 0.5 h worked out at 6350 ng/g, the concentration at 1 h was determined as 4240 ng/g, the concentration at 2 h came to 2990 ng/g and the concentration at 4 h was 1870 ng/g. In data set [3] (Distribution in Heart), the concentration at 8 h was 550 ng/g and the concentration at 12 h came out at 340 ng/g. In data set [3] (Distribution in Kidney), the concentration at 0.5 h was 2790 ng/g, the concentration at 1 h came to 3900 ng/g, the concentration at 2 h stood at 2680 ng/g and the concentration at 4 h is 1910 ng/g. Moreover, in data set [3] (Distribution in Kidney), the concentration at 8 h was determined as 620 ng/g and the concentration at 12 h was found to be 450 ng/g. In data set [3] (Distribution in Liver), the concentration at 0.5 h is 11900 ng/g, the concentration at 1 h amounted to 10000 ng/g, the concentration at 2 h amounted to 8320 ng/g and the concentration at 4 h is 7370 ng/g. In data set [3] (Distribution in Liver), the concentration at 8 h was 6330 ng/g and the concentration at 12 h is 2000 ng/g. Also, in data set [3] (Distribution in Spleen), the concentration at 0.5 h was 6010 ng/g, the concentration at 1 h amounted to 3990 ng/g, the concentration at 2 h is 2420 ng/g and the concentration at 4 h is 1980 ng/g. Besides, in data set [3] (Distribution in Spleen), the concentration at 8 h is 1210 ng/g and the concentration at 12 h stood at 670 ng/g. Besides, in data set [3] (Distribution in paw), the concentration at 0.5 h was determined as 430 ng/g, the concentration at 1 h turned out to be 370 ng/g and the concentration at 2 h came to 210 ng/g.
